{
  "source": "PubChem BioAssay (NCI)",
  "test_in_all_cases": "NCI tumour cell line growth inhibition, 48 h",
  "key": {"A498 renal": {"system": "A498 renal"}, "CAKI-1 renal": {"system": "CAKI-1 renal"}, "HCT-116 colon": {"system": "HCT-116 colon"}, "HOP-62 NSCLC": {"system": "HOP-62 NSCLC"}, "LOX IMVI melanoma": {"system": "LOX IMVI melanoma"}, "MALME-3M melanoma": {"system": "MALME-3M melanoma"}, "NCI-H460 lung": {"system": "NCI-H460 lung"}, "SF-268 CNS": {"system": "SF-268 CNS"}, "SF-295 CNS": {"system": "SF-295 CNS"}, "TK-10 renal": {"system": "TK-10 renal"}},
  "note": "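Test compounds were applied to cells in 96-well plates for 48 hours at 5 doses. GI50: concentration for 50% inhibition of growth. Definition used: TGI = concentration required for complete inhibition of growth.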",
  "data": [
    {"compound": "NCCCC(=O)Nc1ccncc1", "values": [
      {"measurement": "GI50", "setting": "A498 renal", "result": "> 100", "unit": "µM"},
      {"measurement": "TGI", "setting": "A498 renal", "result": "> 100", "unit": "µM"},
      {"measurement": "GI50", "setting": "CAKI-1 renal", "result": "> 100", "unit": "µM"},
      {"measurement": "TGI", "setting": "CAKI-1 renal", "result": "> 100", "unit": "µM"},
      {"measurement": "GI50", "setting": "HCT-116 colon", "result": "> 100", "unit": "µM"},
      {"measurement": "TGI", "setting": "HCT-116 colon", "result": "> 100", "unit": "µM"},
      {"measurement": "GI50", "setting": "HOP-62 NSCLC", "result": "> 100", "unit": "µM"},
      {"measurement": "TGI", "setting": "HOP-62 NSCLC", "result": "> 100", "unit": "µM"},
      {"measurement": "GI50", "setting": "LOX IMVI melanoma", "result": "> 100", "unit": "µM"},
      {"measurement": "TGI", "setting": "LOX IMVI melanoma", "result": "> 100", "unit": "µM"},
      {"measurement": "GI50", "setting": "MALME-3M melanoma", "result": "> 100", "unit": "µM"},
      {"measurement": "TGI", "setting": "MALME-3M melanoma", "result": "> 100", "unit": "µM"},
      {"measurement": "GI50", "setting": "NCI-H460 lung", "result": "> 100", "unit": "µM"},
      {"measurement": "TGI", "setting": "NCI-H460 lung", "result": "> 100", "unit": "µM"},
      {"measurement": "GI50", "setting": "SF-268 CNS", "result": "> 100", "unit": "µM"},
      {"measurement": "TGI", "setting": "SF-268 CNS", "result": "> 100", "unit": "µM"},
      {"measurement": "GI50", "setting": "SF-295 CNS", "result": "> 100", "unit": "µM"},
      {"measurement": "TGI", "setting": "SF-295 CNS", "result": "> 100", "unit": "µM"},
      {"measurement": "GI50", "setting": "TK-10 renal", "result": "> 100", "unit": "µM"},
      {"measurement": "TGI", "setting": "TK-10 renal", "result": "> 100", "unit": "µM"}
    ]}
  ]
}
